Data reported in PubChem BioAssay (NCI).
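These data come from cells grown in 96-well plates and exposed to compound for 48 hours at five concentrations. TGI denotes the concentration required for complete inhibition of growth.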

Assays:
Test in all cases: growth of human tumour cells (NCI), 48 h
OVCAR-3 ovarian = system: OVCAR-3 ovarian
SK-OV-3 ovarian = system: SK-OV-3 ovarian
SK-MEL-28 melanoma = system: SK-MEL-28 melanoma
MOLT-4 leukemia = system: MOLT-4 leukemia
UACC-62 melanoma = system: UACC-62 melanoma
SNB-75 CNS = system: SNB-75 CNS
OVCAR-4 ovarian = system: OVCAR-4 ovarian
NCI-H226 lung = system: NCI-H226 lung
KM12 colon = system: KM12 colon
HCT-15 colon = system: HCT-15 colon
HL-60(TB) leukemia = system: HL-60(TB) leukemia
M14 melanoma = system: M14 melanoma
HOP-92 NSCLC = system: HOP-92 NSCLC
HCT-116 colon = system: HCT-116 colon
HS 578T breast = system: HS 578T breast
A549 NSCLC = system: A549 NSCLC
A498 renal = system: A498 renal
MCF7 breast = system: MCF7 breast
HOP-62 NSCLC = system: HOP-62 NSCLC
NCI/ADR-RES ovarian = system: NCI/ADR-RES ovarian
SK-MEL-5 melanoma = system: SK-MEL-5 melanoma
SR leukemia = system: SR leukemia
PC-3 prostate = system: PC-3 prostate
CCRF-CEM leukemia = system: CCRF-CEM leukemia
SF-268 CNS = system: SF-268 CNS
UACC-257 melanoma = system: UACC-257 melanoma
T-47D breast = system: T-47D breast
RPMI-8226 leukemia = system: RPMI-8226 leukemia
TK-10 renal = system: TK-10 renal
SF-295 CNS = system: SF-295 CNS
MDA-MB-231 breast = system: MDA-MB-231 breast
SW-620 colon = system: SW-620 colon
ACHN renal = system: ACHN renal
LOX IMVI melanoma = system: LOX IMVI melanoma
BT-549 breast = system: BT-549 breast
HCC-2998 colon = system: HCC-2998 colon
UO-31 renal = system: UO-31 renal
OVCAR-8 ovarian = system: OVCAR-8 ovarian
786-0 renal = system: 786-0 renal
OVCAR-5 ovarian = system: OVCAR-5 ovarian
MALME-3M melanoma = system: MALME-3M melanoma
SN12C renal = system: SN12C renal
COLO 205 colon = system: COLO 205 colon
HT29 colon = system: HT29 colon
NCI-H522 lung = system: NCI-H522 lung
NCI-H23 lung = system: NCI-H23 lung
U251 CNS = system: U251 CNS
DU-145 prostate = system: DU-145 prostate
CAKI-1 renal = system: CAKI-1 renal
EKVX NSCLC = system: EKVX NSCLC
SK-MEL-2 melanoma = system: SK-MEL-2 melanoma
IGROV1 ovarian = system: IGROV1 ovarian
MDA-N = system: MDA-N
RXF 393 renal = system: RXF 393 renal
K-562 leukemia = system: K-562 leukemia
MDA-MB-435 = system: MDA-MB-435
SF-539 CNS = system: SF-539 CNS
NCI-H460 lung = system: NCI-H460 lung
SNB-19 CNS = system: SNB-19 CNS

Measured: TGI

COC(=O)c1cc(C#N)[nH]c1-c1ccsc1
48.7 µM: HL-60(TB) leukemia
not listed: SF-539 CNS | NCI-H460 lung | SNB-19 CNS
> 100 µM: all other assays above

CNC(=O)Nc1cc2c3c(c1)CCCN3CCC2
not listed: MOLT-4 leukemia | HL-60(TB) leukemia | UO-31 renal
> 10 µM: all other assays above
